Our source for the Kd values is article PMC8933826 (EBioMedicine, 2022).

For one assay, the target named is Tet(X3). Nature of the assay: biolayer interferometry. The class given is binding, Acinetobacter baumannii. In general terms: In BLI a coated tip is dipped into the sample, and binding shifts an interference pattern.
In the next assay the target is Tet(X4) (Escherichia coli, UniProt A0A3T0V9Y5). The assay is described as follows: biolayer interferometry. The class given is binding.
Sequence of Tet(X4) (A0A3T0V9Y5 1-385): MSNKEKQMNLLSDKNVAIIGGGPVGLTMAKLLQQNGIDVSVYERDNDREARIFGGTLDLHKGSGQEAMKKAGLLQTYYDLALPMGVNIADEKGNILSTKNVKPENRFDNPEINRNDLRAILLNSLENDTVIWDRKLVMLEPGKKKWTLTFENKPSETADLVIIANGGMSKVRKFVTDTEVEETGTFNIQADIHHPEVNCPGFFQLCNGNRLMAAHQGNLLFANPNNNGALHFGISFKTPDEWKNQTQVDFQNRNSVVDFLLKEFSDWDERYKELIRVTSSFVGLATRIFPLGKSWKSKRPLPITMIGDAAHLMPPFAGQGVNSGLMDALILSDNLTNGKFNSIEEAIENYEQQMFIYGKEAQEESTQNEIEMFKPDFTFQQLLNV

Take `CC1=CC(=O)c2c(O)cccc2C1=O` [plumbagin]: the Kd on Tet(X3) stood at 200 µM; at Tet(X4), 1600 µM.

Usually Kd stands for a measure of binding affinity in units of concentration.
